The values below come from patent US20260274814A1, “THIENYL COMPOUNDS FOR THE TREATMENT OF A CENTRAL NERVOUS SYSTEM DISEASE OR DISORDER” (Coreterra Therapeutics, Inc., priority 2023, published 2026).

This assay concerns mice. Put plainly: Neuropharmacological Assay (SmartCube): automated behavioral signature of compound-treated mice compared with a database of reference drug classes. It is filed as in vivo. The conditions noted are these: for minimal effective dose: Mus musculus, ip; for minimal effective dose / MED (minimal effective dose) / MED: i.p., that dose is shown. Put shortly: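 Dose-response work typically spanned 0.3–10 mpk, widened or narrowed to obtain a full curve, with i.p. administration 15 min pre-test. MED is defined as the dose producing ≥45% total SmartCube activity; single-dose entries list the tested dose.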

Where [1] appears, read: dose having 45% or more total activity in SmartCube, if only one dose was tested, read-out: MED (minimal effective dose).
The mark [2] stands for this setting: probability that activity matches this class of agents, 3.0 mg/kg i.p., 15 min before test.
Where [3] appears, read: probability that activity matches this class of agents, 3.0 mg/kg i.p., 15 min before test, hydrochloride, 3 mg/kg.
The mark [4] stands for this setting: SmartCube probability class, 3.0 mg/kg dose, i.p. 15 min before the behavioral test.
[5] abbreviates: SmartCube probability class, 3.0 mg/kg dose, i.p. 15 min before the behavioral test, hydrochloride, 3 mg/kg.
[6] abbreviates: SmartCube class probability, 3.0 mg/kg i.p., 15 min before test.
Setting [7] is: SmartCube class probability, 3.0 mg/kg i.p., 15 min before test, hydrochloride, 3 mg/kg.
[8] abbreviates: minimal effective dose: dose having 45% or more total activity in SmartCube, if only one dose tested.
Where [9] appears, read: dose having 45% or more total activity in SmartCube, if only one dose was tested, hydrochloride.
Where [10] appears, read: minimal effective dose: dose having 45% or more total activity in SmartCube, if only one dose tested, read-out: MED.

Structures can show the parent of a compound that is named as a salt. Where two headings read alike, the source gives them in different places. Where only a bound is given, the exact number is not on record here.

For `CNC1Cc2cscc2C1.Cl` [Compound 21, N-methyl-5,6-dihydro-4H-cyclopenta[c]thiophen-5-amine hydrochloride], the minimal effective dose under setting [1] stood at 3 mg/kg. Besides, under setting [2], the AD result was “ND (^ <4%)”, the AG entry was “ND (^ <4%)”, the AN result is on record as “ND (^ <4%)” and the AP result is given as “ND (^ <4%)”. Besides, under setting [2], the AX result was “ND (^ <4%)”, the CE entry is on record as “ND (^ <4%)”, the HL entry was “ND (^ <4%)” and the MS result is recorded as “ND (^ <4%)”. For the same compound, under setting [2], the PS result is “ND (^ <4%)”, the SH entry was “ND (^ <4%)” and the UK result is “+++ (≥49%)”.

Regarding `CNC1COc2csc(C)c2C1` (stereo not drawn) [Compound 88, N, 5-dimethyl-3,4-dihydro-2H-thieno[3,4-b]pyran-3-amine hydrochloride], under setting [1], the minimal effective dose was 3 mg/kg. Under setting [2], the AD result is recorded as “ND (^ <4%)”, the AG entry is “ND (^ <4%)”, the AN entry is given as “ND (^ <4%)” and the AP result is recorded as “++++ (≥74%)”. Besides, under setting [2], the AX entry was “ND (^ <4%)”, the CE entry was “ND (^ <4%)”, the HL result is “ND (^ <4%)” and the MS result is reported as “ND (^ <4%)”. Under setting [2], the PS entry is on record as “ND (^ <4%)”, the SH result was “ND (^ <4%)” and the UK entry is listed as “ND (^ <4%)”.

On to `CCc1sc(CC)c2c1CCC(NC)C2` (single isomer, unassigned) [Compound 118, 1,3-diethyl-N-methyl-4,5,6,7-tetrahydro-2-benzothiophen-5-amine hydrochloride], for which the “MED (minimal effective dose)” value (dose having 45% or more total activity in SmartCube, if only one dose was tested) was over 3 mpk. Besides, under setting [2], the AD entry is recorded as “ND (^ <4%)”, the AG entry is “ND (^ <4%)”, the AN result is reported as “ND (^ <4%)” and the AP entry is “ND (^ <4%)”. Further, under setting [2], the AX entry was “ND (^ <4%)”, the CE entry was “ND (^ <4%)”, the HL result is “ND (^ <4%)” and the MS entry is recorded as “ND (^ <4%)”. Further, under setting [2], the PS entry was “ND (^ <4%)” and the SH result was “ND (^ <4%)”. Besides, under setting [3], the UK result is “+ (≥4%)”.

On to `CNC1Cc2scc(C)c2C1` (single isomer, unassigned) [Compound 316, N, 3-dimethyl-5,6-dihydro-4H-cyclopenta[b]thiophen-5-amine hydrochloride], for which the minimal effective dose (minimal effective dose: dose having 45% or more total activity in SmartCube, if only one dose was tested, read-out: MED) stood at 3 mg/kg. Under setting [4], the AD result was “ND (^ <4%)”, the AG entry is on record as “ND (^ <4%)”, the AN entry is reported as “ND (^ <4%)” and the HL result is on record as “ND (^ <4%)”. Besides, under setting [4], the MS result is given as “ND (^ <4%)”, the PS result is “ND (^ <4%)”, the SH entry is recorded as “ND (^ <4%)” and the UK entry was “ND (^ <4%)”. Under setting [5], the AP entry is reported as “++++ (≥74%)”, the AX result was “ND (^ <4%)” and the CE entry is listed as “ND (^ <4%)”.

Turning to `Cc1csc2c1CC(N)CC2` (single isomer, unassigned) [Compound 144, 3-methyl-4,5,6,7-tetrahydrobenzothiophen-5-amine hydrochloride], under setting [6], the AG result is listed as “ND (^ <4%)”, the AN result was “ND (^ <4%)”, the AP entry is on record as “ND (^ <4%)” and the AX result is on record as “ND (^ <4%)”. Further, under setting [6], the CE entry is recorded as “ND (^ <4%)” and the MS result was “ND (^ <4%)”. Under setting [7], the AD entry is “ND (^ <4%)”, the HL result is given as “ND (^ <4%)”, the PS entry is “ND (^ <4%)” and the SH result is recorded as “ND (^ <4%)”. Moreover, the UK entry under setting [7] is given as “++++ (≥74%)”. This compound also yielded an MED under setting [8] of 1 mpk.

Take `CNC1CCc2c(csc2F)C1` (single isomer, unassigned) [Compound 75, 1-fluoro-N-methyl-4,5,6,7-tetrahydro-2-benzothiophen-5-amine hydrochloride]: the “MED (minimal effective dose)” value under setting [9] was found to be 1 mpk. Under setting [2], the AD result is recorded as “ND (^ <4%)”, the AG entry is recorded as “ND (^ <4%)”, the AN entry is listed as “ND (^ <4%)” and the CE result is listed as “ND (^ <4%)”. Under setting [2], the HL result was “ND (^ <4%)”, the MS result was “ND (^ <4%)”, the PS entry is “ND (^ <4%)” and the SH result is reported as “ND (^ <4%)”. For the same compound, the UK entry under setting [2] is “ND (^ <4%)”. Also, under setting [3], the AP result was “++++ (≥74%)” and the AX result is “ND (^ <4%)”.

`NC1CCc2csc(C3CC3)c2C1` (stereo not drawn) [Compound 193, 3-cyclopropyl-4,5,6,7-tetrahydro-2-benzothiophen-5-amine hydrochloride]: the minimal effective dose under setting [10] is over 3 mg/kg. Besides, under setting [6], the AD entry was “ND (^ <4%)”, the AG result is on record as “ND (^ <4%)”, the AN entry was “+ (≥4%)” and the AP result is recorded as “ND (^ <4%)”. Further, under setting [6], the AX result is “ND (^ <4%)”, the CE result was “ND (^ <4%)”, the HL result is “ND (^ <4%)” and the MS entry is “ND (^ <4%)”. In addition, under setting [6], the PS entry is given as “ND (^ <4%)”, the SH result is given as “ND (^ <4%)” and the UK result is reported as “ND (^ <4%)”.

With `CNC1CCc2sc(C3CC3)cc2C1` (single isomer, unassigned) [Compound 183, 2-cyclopropyl-N-methyl-4,5,6,7-tetrahydrobenzothiophen-5-amine hydrochloride], the minimal effective dose under setting [10] amounted to 3 mg/kg. Moreover, under setting [6], the AD entry was “ND (^ <4%)”, the AG result is on record as “ND (^ <4%)”, the AN result is on record as “ND (^ <4%)” and the AP entry is given as “ND (^ <4%)”. For the same compound, under setting [6], the AX entry is recorded as “ND (^ <4%)”, the CE entry was “ND (^ <4%)”, the HL entry is reported as “ND (^ <4%)” and the MS result is listed as “ND (^ <4%)”. Under setting [6], the PS result was “ND (^ <4%)”, the SH result is given as “ND (^ <4%)” and the UK result is listed as “++ (≥24%)”.

Take `CNC1CC=Cc2cscc2C1` (stereo not drawn) [Compound 168, N-methyl-5,6-dihydro-4H-cyclohepta[c]thiophen-5-amine hydrochloride]: the minimal effective dose under setting [10] came out at 3 mg/kg. In addition, under setting [6], the AD entry is recorded as “ND (^ <4%)”, the AG entry is given as “ND (^ <4%)”, the AN result is given as “ND (^ <4%)” and the AP result was “+++ (≥49%)”. Further, under setting [6], the AX result is on record as “ND (^ <4%)”, the CE entry is given as “ND (^ <4%)”, the HL entry is listed as “ND (^ <4%)” and the MS entry was “ND (^ <4%)”. In addition, under setting [6], the PS entry is listed as “ND (^ <4%)”, the SH entry is reported as “ND (^ <4%)” and the UK result was “ND (^ <4%)”.

Take `CNC1CCc2csc(C3CC3)c2C1` (single isomer, unassigned) [Compound 154, 3-cyclopropyl-N-methyl-4,5,6,7-tetrahydro-2-benzothiophen-5-amine hydrochloride]: under setting [6], the AG result is listed as “ND (^ <4%)”, the AN entry was “ND (^ <4%)”, the AP result is on record as “ND (^ <4%)” and the AX result was “ND (^ <4%)”. Moreover, under setting [6], the HL result was “ND (^ <4%)”, the PS entry is on record as “ND (^ <4%)” and the UK entry is given as “ND (^ <4%)”. Under setting [7], the AD entry is listed as “ND (^ <4%)”, the CE result is recorded as “ND (^ <4%)”, the MS result is given as “ND (^ <4%)” and the SH entry is reported as “ND (^ <4%)”. The same compound yielded an MED (minimal effective dose: dose having 45% or more total activity in SmartCube, if only one dose tested, hydrochloride) of over 1 mpk.

Take `CNC1CCc2csc(F)c2C1` (single isomer, unassigned) [Compound 74, 3-fluoro-N-methyl-4,5,6,7-tetrahydro-2-benzothiophen-5-amine hydrochloride]: the “MED (minimal effective dose)” value under setting [9] is listed as 3 mpk. In addition, under setting [2], the AG entry was “ND (^ <4%)”, the AN result was “ND (^ <4%)”, the CE result is “ND (^ <4%)” and the HL entry is recorded as “ND (^ <4%)”. Moreover, under setting [2], the MS entry was “ND (^ <4%)”, the PS entry is “ND (^ <4%)”, the SH entry was “ND (^ <4%)” and the UK entry is “ND (^ <4%)”. Under setting [3], the AD result was “+ (≥4%)”, the AP entry is reported as “++++ (≥74%)” and the AX entry is on record as “ND (^ <4%)”.

Consider `CNC1CCc2scc(C3CCC3)c2C1` (single isomer, unassigned) [Compound 268, 3-cyclobutyl-N-methyl-4,5,6,7-tetrahydrobenzothiophen-5-amine hydrochloride], for which, under setting [6], the AD entry is given as “ND (^ <4%)”, the AG result is reported as “ND (^ <4%)”, the AN entry was “ND (^ <4%)” and the AP entry is given as “ND (^ <4%)”. For the same compound, under setting [6], the AX result is reported as “ND (^ <4%)”, the CE result was “ND (^ <4%)”, the HL result was “ND (^ <4%)” and the MS result is “ND (^ <4%)”. Under setting [6], the PS entry is “ND (^ <4%)” and the SH entry was “ND (^ <4%)”. Further, the UK result under setting [7] was “ND (^ <4%)”. Further, the MED under setting [8] was over 3 mpk.
